Patent US9884842B2, “Combretastatin analogs” (The Board of Trustees of the University of Arkansas, priority 2013, dated 2018)

How the values were obtained:
MDA-MB-468 = test: cells; details: Homo sapiens; for GI50: MDA-MB-468; for CC50: MDA-MB-468, read-out: LC50
CCRF-CEM = test: NCI growth inhibition and cytotoxicity screen, Leukemia panel; details: Homo sapiens; for CC50: read-out: LC50
RPMI-8226 = test: as above; details: Homo sapiens; for GI50: RPMI-8226; for CC50: RPMI-8226, read-out: LC50
SR = test: as above; details: Homo sapiens; for CC50: read-out: LC50
LOX-IMVI = test: NCI growth inhibition and cytotoxicity screen, Melanoma panel; details: Homo sapiens; for CC50: read-out: LC50
MALME-3M = test: as above; details: Homo sapiens; for CC50: read-out: LC50
SK-MEL-2 = test: as above; details: Homo sapiens; for GI50: SK-MEL-2; for CC50: SK-MEL-2, read-out: LC50
SK-MEL-28 = test: as above; details: Homo sapiens; for GI50: SK-MEL-28; for CC50: SK-MEL-28, read-out: LC50
SK-MEL-5 = test: as above; details: Homo sapiens; for GI50: SK-MEL-5; for CC50: SK-MEL-5, read-out: LC50
UACC-257 = test: as above; details: Homo sapiens; for GI50: UACC-257; for CC50: UACC-257, read-out: LC50
SF-539 = test: NCI growth inhibition and cytotoxicity screen, CNS Cancer panel; details: Homo sapiens; for GI50: SF-539; for CC50: SF-539, read-out: LC50
A549/ATCC = test: NCI growth inhibition and cytotoxicity screen, Lung Cancer panel; details: Homo sapiens; for GI50: A549; for CC50: A549, read-out: LC50
HOP-62 = test: as above; details: Homo sapiens; for GI50: HOP-62; for CC50: HOP-62, read-out: LC50
NCI-H226 = test: as above; details: Homo sapiens; for GI50: NCI-H226; for CC50: NCI-H226, read-out: LC50
HCT-116 = test: NCI growth inhibition and cytotoxicity screen, Colon Cancer panel; details: Homo sapiens; for GI50: HCT-116; for CC50: HCT-116, read-out: LC50
HT29 = test: as above; details: Homo sapiens; for GI50: HT-29; for CC50: HT-29, read-out: LC50
KM12 = test: as above; details: Homo sapiens; for GI50: KM12; for CC50: KM12, read-out: LC50
SW-620 = test: as above; details: Homo sapiens; for GI50: SW-620; for CC50: SW-620, read-out: LC50
A498 = test: NCI growth inhibition and cytotoxicity screen, Renal Cancer panel; details: Homo sapiens; for GI50: A498; for CC50: A498, read-out: LC50
ACHN = test: as above; details: Homo sapiens; for CC50: read-out: LC50
RXF 393 = test: as above; details: Homo sapiens; for GI50: RXF 393; for CC50: RXF 393, read-out: LC50
SN12C = test: as above; details: Homo sapiens; for CC50: read-out: LC50
BT-549 = test: NCI growth inhibition and cytotoxicity screen, Breast Cancer panel; details: Homo sapiens; for GI50: BT-549; for CC50: BT-549, read-out: LC50
OVCAR-8 = test: NCI growth inhibition and cytotoxicity screen, Ovarian Cancer panel; details: Homo sapiens; for GI50: OVCAR-8; for CC50: OVCAR-8, read-out: LC50
PC-3 = test: NCI growth inhibition and cytotoxicity screen, Prostate Cancer panel; details: Homo sapiens; for GI50: PC-3; for CC50: PC-3, read-out: LC50
DU-145 = test: as above; details: Homo sapiens; for GI50: DU-145; for CC50: DU-145, read-out: LC50
NCI-H522 = test: NCI growth inhibition and cytotoxicity screen, Lung Cancer panel; type: cell-based; details: Homo sapiens, NCI-H522, Table 1, cell line NCIH522 (Lung Cancer)
SF-295 = test: NCI growth inhibition and cytotoxicity screen, CNS Cancer panel; type: cell-based; details: Homo sapiens, SF-295, Table 1, cell line SF-2395 (CNS Cancer)
[1] = read-out: LC50 (the source's name)

Compound: COc1cc(/C(C#N)=C\c2cc3ccccc3s2)cc(OC)c1OC [Formula (I)(a)]
- GI50 (MDA-MB-468): < 10 nM
- CC50 (MDA-MB-468): > 100000 nM
- GI50 (CCRF-CEM): < 10 nM
- CC50 (CCRF-CEM): > 100000 nM
- GI50 (RPMI-8226): < 10 nM
- CC50 (RPMI-8226): > 100000 nM
- GI50 (SR): < 10 nM
- CC50 (SR): > 100000 nM
- GI50 (LOX-IMVI): < 10 nM
- CC50 (LOX-IMVI): > 100000 nM
- GI50 (MALME-3M): < 10 nM
- CC50 (MALME-3M): > 100000 nM
- GI50 (SK-MEL-2): < 10 nM
- CC50 (SK-MEL-2): > 100000 nM
- GI50 (SK-MEL-28): < 10 nM
- CC50 (SK-MEL-28): > 100000 nM
- GI50 (SK-MEL-5): < 10 nM
- CC50 (SK-MEL-5): > 100000 nM
- GI50 (UACC-257): < 10 nM
- CC50 (UACC-257): > 100000 nM
- GI50 (SF-539): < 10 nM
- CC50 (SF-539): > 100000 nM
- GI50 (A549/ATCC): < 10 nM
- CC50 (A549/ATCC): > 100000 nM
- GI50 (HOP-62): < 10 nM
- CC50 (HOP-62): > 100000 nM
- GI50 (NCI-H226): 17.9 nM
- CC50 (NCI-H226): > 100000 nM
- GI50 (HCT-116): < 10 nM
- CC50 (HCT-116): > 100000 nM
- GI50 (HT29): < 10 nM
- CC50 (HT29): > 100000 nM
- GI50 (KM12): < 10 nM
- CC50 (KM12): > 100000 nM
- GI50 (SW-620): < 10 nM
- CC50 (SW-620): > 100000 nM
- GI50 (A498): < 10 nM
- CC50 (A498): > 100000 nM
- GI50 (ACHN): < 10 nM
- CC50 (ACHN): > 100000 nM
- GI50 (RXF 393): < 10 nM
- CC50 (RXF 393): > 100000 nM
- GI50 (SN12C): < 10 nM
- CC50 (SN12C): > 100000 nM
- GI50 (BT-549): < 10 nM
- CC50 (BT-549): > 100000 nM
- GI50 (OVCAR-8): < 10 nM
- CC50 (OVCAR-8): > 100000 nM
- GI50 (PC-3): < 10 nM
- CC50 (PC-3): > 100000 nM
- GI50 (DU-145): < 10 nM
- CC50 (DU-145): > 100000 nM

Compound: COc1cc(/C=C/c2nc3ccccc3s2)cc(OC)c1OC [Formula (I)(d)]
- GI50 (NCI-H522): 0.16 nM
- CC50 (NCI-H522; [1]): 47900 nM
- GI50 (SF-295): 0.07 nM
- CC50 (SF-295; [1]): > 100000 nM
- GI50 (MDA-MB-468): 0.82 nM
- CC50 (MDA-MB-468): > 100000 nM
- GI50 (CCRF-CEM): 0.13 nM
- CC50 (CCRF-CEM): > 100000 nM
- GI50 (RPMI-8226): 0.15 nM
- CC50 (RPMI-8226): > 100000 nM
- GI50 (SR): 0.036 nM
- CC50 (SR): > 100000 nM
- GI50 (LOX-IMVI): 1.9 nM
- CC50 (LOX-IMVI): 67900 nM
- GI50 (MALME-3M): 0.07 nM
- CC50 (MALME-3M): 51600 nM
- GI50 (SK-MEL-2): 0.064 nM
- CC50 (SK-MEL-2): 64200 nM
- GI50 (SK-MEL-28): 0.31 nM
- CC50 (SK-MEL-28): 50500 nM
- GI50 (SK-MEL-5): 0.047 nM
- CC50 (SK-MEL-5): 34000 nM
- GI50 (UACC-257): 15 nM
- CC50 (UACC-257): > 100000 nM
- GI50 (SF-539): 0.076 nM
- CC50 (SF-539): 56200 nM
- GI50 (A549/ATCC): 0.11 nM
- CC50 (A549/ATCC): > 100000 nM
- GI50 (HOP-62): 0.39 nM
- CC50 (HOP-62): 81500 nM
- GI50 (NCI-H226): 0.24 nM
- CC50 (NCI-H226): 88500 nM
- GI50 (HCT-116): 0.0072 nM
- CC50 (HCT-116): > 100000 nM
- GI50 (HT29): 0.038 nM
- CC50 (HT29): > 100000 nM
- GI50 (KM12): 0.072 nM
- CC50 (KM12): 41600 nM
- GI50 (SW-620): 0.43 nM
- CC50 (SW-620): > 100000 nM
- GI50 (A498): 0.041 nM
- CC50 (A498): 35800 nM
- GI50 (ACHN): 1.22 nM
- CC50 (ACHN): > 100000 nM
- GI50 (RXF 393): 0.14 nM
- CC50 (RXF 393): 97600 nM
- GI50 (SN12C): 9.37 nM
- CC50 (SN12C): > 100000 nM
- GI50 (BT-549): 3.7 nM
- CC50 (BT-549): 58800 nM
- GI50 (OVCAR-8): 0.39 nM
- CC50 (OVCAR-8): > 100000 nM
- GI50 (PC-3): 0.13 nM
- CC50 (PC-3): > 100000 nM
- GI50 (DU-145): 0.27 nM
- CC50 (DU-145): > 100000 nM
